Test results reported in US11834434B2, “Substituted 2-heteroaryloxypyridines and salts thereof and their use as herbicidal agents” (Bayer Aktiengesellschaft, priority 2018, dated 2023).

Key:
Type in all cases: in vivo
[1] = test system: Poa annua (POAAN); assay: Pre-emergence herbicidal action against Poa annua; details: 1280 g/ha; scored visually after about 3 weeks vs untreated controls; 100% = plants have died, 0% = like control plants
Excerpt: (§1) Seeds of mono- and dicotyledonous weed plants were placed in plastic pots in sandy loam soil (doubly sown with in each case one species of mono- or dicotyledonous weed plants per pot) and covered with soil. The compounds of the invention, formulated in the form of wettable powders (WP) or as emulsion concentrates (EC), were then applied onto the surface of the covering soil as aqueous suspension or emulsion with addition of 0.5% additive at a water application rate of 600 liters per hectare (converted). After the treatment, the pots were placed in a greenhouse and kept under good growth conditions for the test plants. After about 3 weeks, the effect of the preparations was scored visually in comparison with untreated controls as percentages. For example, 100% activity=the plants have died, 0% activity=like control plants. Tables C1 to C8 below show the effects of selected compounds of the general formula (I) according to Table 1 on various harmful plants and an application rate corresponding to 1280 g/ha, which were obtained by the experimental procedure mentioned above.

[2] = test system: Stellaria media (STEME); assay: Pre-emergence herbicidal action against Stellaria media; details: 1280 g/ha; scored visually after about 3 weeks vs untreated controls; 100% = plants have died, 0% = like control plants
Excerpt: as §1

[3] = test system: Matricaria inodora (MATIN); assay: Pre-emergence herbicidal action against Matricaria inodora; details: 1280 g/ha; scored visually after about 3 weeks vs untreated controls; 100% = plants have died, 0% = like control plants
Excerpt: as §1

[4] = test system: Lolium rigidum (LOLRI); assay: Pre-emergence herbicidal action against Lolium rigidum; details: 1280 g/ha; scored visually after about 3 weeks vs untreated controls; 100% = plants have died, 0% = like control plants
Excerpt: as §1

[5] = test system: Abutilon theophrasti (ABUTH); assay: Pre-emergence herbicidal action against Abutilon theophrasti; details: 1280 g/ha; scored visually after about 3 weeks vs untreated controls; 100% = plants have died, 0% = like control plants
Excerpt: as §1

[6] = test system: Setaria viridis (SETVI); assay: Pre-emergence herbicidal action against Setaria viridis; details: 1280 g/ha; scored visually after about 3 weeks vs untreated controls; 100% = plants have died, 0% = like control plants
Excerpt: as §1

[7] = test system: Amaranthus retroflexus (AMARE); assay: Post-emergence herbicidal action against Amaranthus retroflexus; details: 1280 g/ha; rated visually after about 3 weeks vs untreated controls; 100% = plants have died, 0% = like control plants
Method: (§2) Seeds of mono- and dicotyledonous weed plants were placed in plastic pots in sandy loam soil (doubly sown with in each case one species of mono- or dicotyledonous weed plants per pot), covered with soil and cultivated in a greenhouse under controlled growth conditions. 2 to 3 weeks after sowing, the test plants were treated at the one-leaf stage. The compounds of the invention, formulated in the form of wettable powders (WP) or as emulsion concentrates (EC), were applied onto the green parts of the plants as aqueous suspension or emulsion with addition of 0.5% additive at a water application rate of 600 liters per hectare (converted). After the test plants had been kept in the greenhouse under optimum growth conditions for about 3 weeks, the activity of the preparations was rated visually in comparison to untreated controls. For example, 100% activity=the plants have died, 0% activity=like control plants. Tables B1 to B8 below show the effects of selected compounds of the general formula (I) according to Table 1 on various harmful plants and an application rate corresponding to 1280 g/ha, which were obtained by the experimental procedure mentioned above.

[8] = test system: Echinochloa crus-galli (ECHCG); assay: Pre-emergence herbicidal action against Echinochloa crus-galli; details: 1280 g/ha; scored visually after about 3 weeks vs untreated controls; 100% = plants have died, 0% = like control plants
Excerpt: as §1

[9] = test system: Amaranthus retroflexus (AMARE); assay: Pre-emergence herbicidal action against Amaranthus retroflexus; details: 1280 g/ha; scored visually after about 3 weeks vs untreated controls; 100% = plants have died, 0% = like control plants
Excerpt: as §1

[10] = test system: Abutilon theophrasti (ABUTH); assay: Post-emergence herbicidal action against Abutilon theophrasti; details: 1280 g/ha; rated visually after about 3 weeks vs untreated controls; 100% = plants have died, 0% = like control plants
Method: as §2

[11] = test system: Stellaria media (STEME); assay: Post-emergence herbicidal action against Stellaria media; details: 1280 g/ha; rated visually after about 3 weeks vs untreated controls; 100% = plants have died, 0% = like control plants
Method: as §2

[12] = test system: Poa annua (POAAN); assay: Post-emergence herbicidal action against Poa annua; details: 1280 g/ha; rated visually after about 3 weeks vs untreated controls; 100% = plants have died, 0% = like control plants
Method: as §2

Compound	Pre-emergence action against Poa annua (POAAN) [1] [%]	Pre-emergence action against Stellaria media (STEME) [2] [%]	Pre-emergence action against Matricaria inodora (MATIN) [3] [%]	Pre-emergence action against Lolium rigidum (LOLRI) [4] [%]	Pre-emergence action against Abutilon theophrasti (ABUTH) [5] [%]	Pre-emergence action against Setaria viridis (SETVI) [6] [%]	Post-emergence action against Amaranthus retroflexus (AMARE) [7] [%]	Pre-emergence action against Echinochloa crus-galli (ECHCG) [8] [%]	Pre-emergence action against Amaranthus retroflexus (AMARE) [9] [%]	Post-emergence action against Abutilon theophrasti (ABUTH) [10] [%]	Post-emergence action against Stellaria media (STEME) [11] [%]	Post-emergence action against Poa annua (POAAN) [12] [%]
Cc1ccc(Cc2ccc(C)nc2Oc2ncccn2)cc1 [Example I-449]	90	100	–	–	–	–	–	–	–	–	–	–
COc1cc(Cc2ccc(C)nc2Oc2ncccn2)ccc1F [Example I-450]	100	100	100	90	100	100	90	90	90	–	–	–
COc1cc(Cc2ccc(C)nc2Oc2ncc(C(F)(F)F)cn2)ccc1F [Example I-465]	100	90	–	90	–	90	90	–	100	–	–	–
COc1cc(Oc2ccc(C)nc2Oc2ncc(Cl)cn2)ccc1F [Example I-509]	100	100	100	90	100	90	100	–	100	–	–	–
COc1cc(Oc2ccc(C)nc2Oc2ncc(F)cn2)ccc1F [Example I-520]	100	100	100	100	90	90	100	–	100	90	–	–
Cc1ccc(Oc2ccccc2)c(Oc2ncccn2)n1 [Example I-522]	100	100	90	90	100	100	100	100	90	–	100	90
Cc1ccc(Oc2ccc(Cl)cc2)c(Oc2ncccn2)n1 [Example I-526]	100	100	100	–	100	100	–	100	100	–	–	100
COc1cc(Oc2ccc(C)nc2Oc2ncccn2)ccc1F [Example I-531]	100	100	100	–	100	100	–	90	100	–	–	–
Cc1ccc(Oc2ccccc2)c(Oc2ncc(C(F)(F)F)cn2)n1 [Example I-533, 2-[(6-Methyl-3-phenoxy-2-pyridyl)oxy]-5-(trifluoromethyl)pyrimidine]	90	100	–	–	–	90	–	90	–	–	–	100
Cc1ccc(Oc2ccc(Cl)cc2)c(Oc2ncc(C(F)(F)F)cn2)n1 [Example I-534]	–	100	90	100	–	90	–	–	90	–	–	–
